Measured values as given in patent publication US6569411B2, “Serine carbonates” (The Gillette Company, priority 1999, dated 2003).
Values belong to the compound of their own block, whether it stands above or below them.

What was measured:
[1] = system: Staphylococcus haemolyticus cells; test: Sniff assay: malodor inhibition and fragrance production with axillary malodor precursors; assay type: cell-based; conditions: 0.1% compound with malodor precursors and cells at 37° C., seven judges, 8-point scale
Protocol: The serine carbonate 2-Amino-3-(1,5,7-trimethyl-octyl-oxycarbonyloxy)-propionic acid has been tested in a sniff assay to determine whether, in the presence of Staphylococcus haemolyticus and axillary malodor precursors, production of malodor is inhibited and production of fragrance can be detected. For this assay, axillary washes, which contain malodor precursors, were dried into vials at a concentration sufficient to produce a strong axillary malodor when incubated with Staphylococcus haemolyticus cells. Vials were incubated at 37° C. with Staphylococcus haemolyticus cells. The vials contained […] with 0.1% 2-amino-3-(1,5,7-trimethyl-octyl-oxycarbonyloxy)-propionic acid. Control precursor vials were not incubated with the cells. The mixtures were extracted with chloroform and about 10 μl of the chloroform layers were spotted on bibulous paper. After the chloroform had evaporated, the papers were evaluated for malodor level and fragrance level. Evaluations were done by seven judges who rated malodor or fragrance strength on an 8-point scale from 0 (none) to 7 (extremely strong). Results were calculated as percent change from control malodor or precursor fragrance score.

[2] = system: Staphylococcus haemolyticus cells; test: Gas chromatography assay of cleavage of serine carbonates by axilla bacteria; assay type: cell-based; conditions: 350 nmol of compound, 16-18 hours at 37° C.
Protocol: This example is meant to illustrate, not to limit, the invention.
The synthesized amino acid derivatives were tested for their ability to be cleaved by bacteria normally found in human axilla. A 100 ml culture of Staphylococcus haemolyticus was grown overnight at 37° C. in TSB medium.
The cells were pelleted by centrifuging the culture at 5,000 rpm for 12 minutes, and the pelleted cells were resuspended in sterile saline. The cells were again pelleted and resuspended in sterile saline. After pelleting the cells once again, the cells were weighed and resuspended in sterile assay buffer (50 mM phosphate, pH 6.8, 1% glucose/dextran). The final concentration of cells was 0.05 g cells/ml (for the gas chromatography (GC) assay). These cell suspensions can be stored at 4° C.
The serine carbonate was prepared as stock solution at a concentration of approximately 5 mg/ml in 50 mM potassium phosphate buffer (pH 6.8). If necessary, the pH can be adjusted to 6.8-7.0 with 1N NaOH. The serine carbonate stock solution was sterilized by filtering through 0.22 μm filters.
For a negative control, the cells were incubated with 100 μl sterile phosphate buffer. […] The samples then were extracted into 100 μl chloroform and analyzed by gas chromatography.

melting point: 147 °C
Structure (SMILES): CC(C)CCCC(C)C1CCC2C3CC=C4CC(OC(=O)OCC(N)C(=O)O)CCC4(C)C3CCC12C (centres unmarked)

Structure (SMILES): CC(C)CC(C)CCCC(C)OC(=O)OCC(N)C(=O)O (centres unmarked) [Example 3a, 2-Amino-3-(1,5,7-trimethyl-octyloxycarbonyloxy)-propionic acid]
Malodor drop ([1]; percent change from control malodor score): 50%
Fragrance increase ([1]; percent change from control precursor fragrance score): 30%

Structure (SMILES): CC(CCOC(=O)OCC(N)C(=O)O)CCc1ccccc1 (centres unmarked) [Example 3e, 2-Amino-3-(3-methyl-5-phenyl-pentyloxycarbonyloxy)-propionic acid]
precursor cleaved by the cells [2]: 40%
3-methyl-5-phenyl-pentanol produced by the cell incubation ([2]; pH 6.8, GC analysis): 140 nmols
